According to patent US9937225B2, “Topical formulations and uses thereof” (OCULAR TECHNOLOGIES SARL, priority 2012, dated 2018):

What was measured:
[1] = Mixed nanomicellar size and polydispersity index (Zetasizer); assay type: physicochemical; conditions: solvent evaporation; HCO-60 4 wt %, Octoxynol-40 0.01 wt %, 1001 initially added 0.120 wt %
Experimental: The formulation size and polydispersity index were determined with Zetasizer, Malvern Instruments, NJ. In brief, approximately 1 ml of each formulation was transferred to a cuvette and placed in the instrument. A laser beam of light was used to determine the mixed nanomicellar size.
(§1) Weight percent of drug loaded into MNF was determined following the method for entrapment efficiency. Size and polydispersity index of the formulations was determined with Malvern zetasizer as described above. The formulations appear clear and have small size and narrow size distribution.

[2] = Weight percent of compound 1001 loaded into mixed nanomicelles (entrapment, RP-HPLC); assay type: physicochemical; conditions: solvent evaporation, HCO-60 4 wt %, Octoxynol-40 0.01 wt %
Experimental: To determine the entrapment efficiency of the formulation, all the prepared formulations were subjected to entrapment efficiency test. Briefly, formulations were vortex mixed for homogeneity and 1 mL was transferred to a fresh (1.5 mL) eppendorf tube. Each formulation was lyophilized to obtain a solid at the bottom of eppendorf tube. The obtained solid was suspended in 1 mL of organic solvent (diethyl ether) to generate reverse micelles and release the drug into the external organic solvent. The organic solvent was evaporated overnight in speed vacuum. The resultant reversed micelles were resuspended in 1 mL of 2-propanol (dilution factor was taken into account) and further diluted to determine the concentration of compound 1001 entrapped in each micellar preparation with HPLC. The entrapment efficiency of the formulation was calculated with the following formula (wherein MNF=Mixed Nanomicellar Formulation): […]
In vitro analysis of compound 1001 was performed by a reversed phase high performance liquid chromatography (RP-HPLC) method with a Shimadzu HPLC pump (Shimadzu, Shimadzu Scientific instruments, Columbia, Md.), Alcott autosampler (model 718 AL), Shimadzu UV/Visible detector (Shimadzu, SPD-20A/20AV, USA), ODS column (5 μm, 150×4.6 mm) thermostated at 40°±1 C and Hewlett Packard HPLC integrator (Hewlett Packard, Palo Alto, Calif.). The mobile phase was comprised of methanol (MeOH), water and trifluoroacetic acid (TFA) (70:30:0.05% v/v) which was set at a flow rate of 0.5 mL/min. Detection wavelength was set at 272 nm. The sample tray temperature was maintained at 4° C. Calibration curve (0.5 to 5 μg/mL) for compound 1001 was prepared by making appropriate dilutions from the stock solution in 2-propanol. An injection volume of 10 μl was injected into the HPLC column for analysis. All the standards and samples prepared were stored at 4° C. before and during the analysis.
Mixed nanomicellar formulation encapsulating compound 1001 was prepared by solvent evaporation method in two steps: 1) Preparation of basic formulation and 2) rehydration. In step one, compound 1001, HCO-60 and octoxynol-40 were dissolved separately in 0.3 mL of ethyl acetate. These three solutions were mixed together in 15-mL centrifuge tube. The resultant mixture was vortexed to obtain a homogenous solution. Ethyl acetate solvent was removed with speed vacuum to obtain a solid thin film. The residue was kept overnight under high vacuum at room temperature to remove residual organic solvent. In step two, the resultant thin film was hydrated with 1 mL of double distilled deionized water by vortexing the solution. The rehydrated formulation was suspended in 2× phosphate buffer solution, (pH 6.5). It was filtered through 0.2 μm nylon filter membrane to remove the unentrapped drug aggregates and other foreign particulates. The entrapment of compound 1001 was determined by RP-HPLC following disruption of the micelles and solubilization of 1001 in the diluent (2-propanol) as described below
as §1

SMILES: C#CC[C@@H](O)/C=C/C=C/C#C[C@@H](O)CCCC(=O)OC(C)C [compound 1001]
- Polydispersity Index [1]: 0.320
- 1001 (loaded in mixed micelles) wt % ([2]; 1001 initially added 0.035 wt %): 0.033 wt %
- 1001 (loaded in mixed micelles) wt % ([2]; 1001 initially added 0.070 wt %): 0.065 wt %
- 1001 (loaded in mixed micelles) wt % ([2]; 1001 initially added 0.095 wt %): 0.084 wt %
- 1001 (loaded in mixed micelles) wt % ([2]; 1001 initially added 0.120 wt %): 0.11 wt %
- 1001 (loaded in mixed micelles) wt % ([2]; 1001 initially added 0.250 wt %): 0.26 wt %
- 1001 (loaded in mixed micelles) wt % ([2]; 1001 initially added 0.300 wt %): 0.32 wt %
- 1001 (loaded in mixed micelles) wt % ([2]; 1001 initially added 0.400 wt %): 0.45 wt %
